Columns and labels:
[1] = molecular target: T1, Steryl-sulfatase (Homo sapiens) (UniProt P08842); assay: Relative potency compared to COUMATE against Estrone sulfatase
T1 sequence (whole entry): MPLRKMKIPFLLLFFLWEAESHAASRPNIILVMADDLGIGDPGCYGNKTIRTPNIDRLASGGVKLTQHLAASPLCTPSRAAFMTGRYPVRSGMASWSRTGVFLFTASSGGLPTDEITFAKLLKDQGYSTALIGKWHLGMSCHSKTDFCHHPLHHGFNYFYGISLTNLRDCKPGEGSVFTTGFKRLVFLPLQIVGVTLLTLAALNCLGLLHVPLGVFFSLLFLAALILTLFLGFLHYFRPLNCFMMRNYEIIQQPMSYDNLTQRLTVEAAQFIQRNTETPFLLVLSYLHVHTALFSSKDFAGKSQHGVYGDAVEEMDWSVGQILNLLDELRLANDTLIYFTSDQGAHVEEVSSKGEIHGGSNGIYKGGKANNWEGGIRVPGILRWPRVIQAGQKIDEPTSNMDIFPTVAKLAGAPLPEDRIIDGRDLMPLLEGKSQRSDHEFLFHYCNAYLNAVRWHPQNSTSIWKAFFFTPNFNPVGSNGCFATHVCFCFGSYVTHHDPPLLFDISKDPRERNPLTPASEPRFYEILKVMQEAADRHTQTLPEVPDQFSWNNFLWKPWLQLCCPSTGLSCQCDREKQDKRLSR

[2] = molecular target: T1, Steryl-sulfatase (Homo sapiens); assay: Relative potency compared to EMATE against Estrone sulfatase
[3] = molecular target: T2, Steryl-sulfatase (Homo sapiens, UniProt P08842); assay: Inhibition of Estrone sulfatase
T2 sequence (P08842 whole entry): T1 sequence (whole entry)

[4] = molecular target: T1, Steryl-sulfatase (Homo sapiens)
Description: (§1) Relative potency against Estrone sulfatase

[5] = molecular target: T1, Steryl-sulfatase (Homo sapiens); remark: listed apart in the source
[6] = molecular target: T1, Steryl-sulfatase (Homo sapiens); remark: listed apart in the source
Description: as §1

| SMILES | Potency [1] | Potency [2] | IC50 [3] | Potency [5] | Potency [6] | Potency [4] |
| --- | --- | --- | --- | --- | --- | --- |
| NS(=O)(=O)Oc1ccc(C(=O)/C=C/c2ccccc2)cc1 | 0.0456 | 0.0019 | 263 µM |  |  |  |
| C[C@]12CC[C@@H]3c4ccc(OS(N)(=O)=O)cc4CCC3[C@@H]1CCC2=O (single isomer, unassigned) [EMATE] | 24 |  | 0.5 µM |  |  | 1 |
| NS(=O)(=O)Oc1ccc(C(=O)c2ccccc2)cc1 | 0.191 | 0.0079 | 63 µM |  |  |  |
| NS(=O)(=O)Oc1ccc(C=O)cc1 | 0.0472 | 0.0019 | 254 µM |  |  |  |
| Cc1cc(=O)oc2cc(OS(N)(=O)=O)ccc12 |  |  | 12 µM | 0.0417 | 1 |  |

Further lines, with some results ahead:

| Potency [1] | Potency [2] | IC50 [3] | Potency [5] | Potency [6] | SMILES | Potency [4] |
| --- | --- | --- | --- | --- | --- | --- |
| 0.574 | 0.0239 | 20.9 µM |  |  | CCCCC(=O)c1ccc(OS(N)(=O)=O)cc1 |  |
| 0.364 | 0.0152 | 33 µM |  |  | NS(=O)(=O)Oc1ccc(C(=O)Cc2ccccc2)cc1 |  |
| 2.4 | 0.1 | 5 µM |  |  | CCCCCCC(=O)c1ccc(OS(N)(=O)=O)cc1 |  |
| 0.301 | 0.0126 | 39.8 µM |  |  | CCCC(=O)c1ccc(OS(N)(=O)=O)cc1 |  |
| 0.0397 | 0.0016 | 302 µM |  |  | CC(=O)c1ccc(OS(N)(=O)=O)cc1 |  |
| 3.53 | 0.147 | 3.4 µM |  |  | CCCCCCCCC(=O)c1ccc(OS(N)(=O)=O)cc1 |  |
| 2.14 | 0.0893 | 5.6 µM |  |  | CCCCCCCC(=O)c1ccc(OS(N)(=O)=O)cc1 |  |
| 0.923 | 0.0385 | 13 µM |  |  | CCCCCCCCCC(=O)c1ccc(OS(N)(=O)=O)cc1 |  |
